Here are results for 1 compound from patent US20110165565A1, “COMPOSITIONS AND METHODS FOR POLYNUCLEOTIDE EXTRACTION AND METHYLATION DETECTION” (THE JOHNS HOPKINS UNIVERSITY, priority 2008, published 2011).

The subject of the test is p16 promoter methylation in colorectal cancer cell line RKO. The experiment in a line: MS-qFRET quantification of p16 methylation reversal in RKO cells treated with DAC. The class given is cell-based. From the text: The quantitative ability of MS-qFRET was further tested in cell lines and in patient samples as a function of response to a DNA demethylating agent. Reversal of methylation in the colorectal cancer cell line, RKO, was quantified at specific time points after treatment with 5-aza-2′-deoxycytidine (DAC). […] Since DNA replication is necessary for incorporation of DAC into DNA, reversal of methylation may be best observed only after inhibition of DNA methyltransferases due to cell cycling. The low amount of methylation reversal in the initial 24 to 36 hours could be attributed to the 22 hour doubling time for RKO cells.
(ID and IA corresponding to donor and acceptor intensity).

Take `Nc1ncn([C@H]2C[C@H](O)[C@@H](CO)O2)c(=O)n1` [5-aza-2′-deoxycytidine (DAC), 5-aza-2′-deoxycytidine]: the “q-score, level of p16 methylation post-treatment” value (DNA from RKO cells treated with DAC for different time points (FIG. 3C)) is recorded as “drop in the level of methylation”. Besides, the “time of maximal reversal of methylation at p16” value (RKO cells, 1 μM DAC, post-treatment) came to 60 h.
